Results from patent publication EP0412158A1, “ONCOSTATIC DRUG” (priority 1987, dated 1988).
Values joined by “and” are separate entries in the source; they are usually repeats but may differ in a detail not shown here. Equal entries are not always repeated. Where two headings read alike, the source gives them in different places.

How the values were obtained:
[1] = tested on: methyl cholanthrene A tumor; assay: Antineoplastic activity against transplanted methyl cholanthrene A tumor, evaluation by size of tumor (Examples 1 to 6); assay type: in vivo, female BALB/C mice; settings: for Average weight of tumor / Number of tumorless mice /total number of mice / Change in body weight / T/control: ip×9; for Change in body weight: body weight 13 days after transplantation; for T/control: tumor weight
Description: By dissolving alkylammonium salt of polymolybdic acid [NH3C3H7(iso)]s [Mo7O24] • 3H2O (Compound A) and other compounds (Compounds B to D) severally in distilled water, aqueous solutions containing the compounds in a fixed concentration of 10 mg/ml were obtained. These aqueous solutions were administered to female BALB/C mice (five weeks old) to which methyl cholanthrene A tumor had been transplanted to test the compounds for antineoplastic activity. To be specific, methyl cholanthrene A was transplanted to the mice in a ratio of 1.0 x 10^5 cells per mouse and the aqueous solutions were continuously administered to the mice by intraperitoneal injection ([…]) for nine days. On elapse of 14 days following the start of the administration, the tumors in the mice were measured. For comparison, mice to which no antineoplastic .drug was administered and mice to which aminonitroso urea was administered were tested by following the procedure described above.

Test for acute toxicity = assay type: in vivo, BALB/C mice, nude mice; settings: result in words
methyl cholanthrene A [2] = assay: Methyl cholanthrene A tumor, evaluation by extension of period of survival (Examples 7 to 11); assay type: in vivo, female BALB/C mice; settings: for Change in body weight: ip×9, D1~D9
Description: The aforementioned compounds, A to D, were severally dissolved in distilled water to obtain aqueous solutions containing the compounds in a fixed concentration of 10 mg/ml. To the female BALB/C mice (five weeks old) to which methyl cholanthrene A had been transplanted in a ratio of 1.0 x 10^5 cells per mouse, […] to determine the mices' periods of survival. For comparison, mice to which no antineoplastic drug was administered and mice to which aminonitroso urea was administered were similarly tested.

methyl cholanthrene A [3] = assay: Methyl cholanthrene A tumor, evaluation by elongation of period of survival (Examples 31, 34 and 35); assay type: in vivo, female BALB/C mice; settings: 100 mg/kg, ip × 9 (D1~D9)
Description: The active compounds, M to 0, mentioned above were severally dissolved in distilled water to obtain aqueous solutions containing the compounds in a fixed concentration of 10 mg/ml. To be specific, to female BALB/C mice (five weeks old) to which methyl cholanthrene A had been transplanted in a ratio of 1.0 x 10^5 cells per mouse, […] for 9 consecutive days to determine the mice's periods of survival. For comparison, mice to which no aqueous solution was administered and mice to which aminonitrosourea was administered were similarly tested.

MM-46 breast cancer = assay type: in vivo, female C3H/He mice
Description: The aforementioned active compound M was dissolved in distilled water to obtain an aqueous solution containing the compound in a concentration of 10 mg/ml. To female C3H/He mice (five weeks old) to which MM-46 breast cancer was transplanted in a ratio of 1.0 x 10^5 cells per mouse, the aqueous solution was administered intraperitoneally (ip) or orally (po) at a dose of 100 mg and a dose of 200 mg per kg of body weight for 9 consecutive days to measure the periods of the mices survival. For comparison, mice to which no aqueous solution was administered was similarly tested.

[4] = tested on: methyl cholanthrene A tumor; assay: Methyl cholanthrene A tumor, evaluation by size of tumor (Examples 31 to 33); assay type: in vivo, female BALB/C mice
Description: A heteropoly acid salt, Na5[IM06O24]•34H2O (Compound M), and other compounds (Compounds N and O ) were severally dissolved in distilled water to obtain aqueous solutions containing the salts in a fixed concentration of 10 mg/ml. To female BALB/C mice (five weeks old) to which methyl cholanthrene A tumor had been transplanted, the aqueous solutions were administered to test the compounds for antineoplastic activity. To be specific, the methyl cholanthrene A was transplanted to the mice at a ratio of 1.0 x 10^5 cells per mouse and the aqueous solutions were administered ([…]) for 9 consecutive days by intraperitoneal injection. On elapse of 14 and 21 days after the stop of the administration, the sizes of tumors in the mice were measured. For comparison, mice to which no aqueous solution was administered and mice to which aminonitrosourea was administered were similarly tested.

human lung cancer (OAT) [5] = assay type: in vivo, female ICR/cd-1 mice
Description: A patch of human lung cancer [cancer cells recommended by National Cancer Institute (NCI) of the U.S.A.] (OAT) measuring approximately 1 x 1 mm in area was transplanted beneath the hepatic capsule of each of female ICR/cd-1 mice (18 to 20 g) five to six weeks old (SRC method).
Then, an aqueous solution of 1% by weight of the aforementioned compound M was administered by intraperitoneal injection (ip) at a dose of 100 mg/kg and a dose of 200 mg/kg to the mice once per day for 5 consecutive days. The body weights of the mice and the sizes of tumor in the mice were measured on the 7th day, i.e. after one days interval following the stop of the administration to evaluate the effect of compound.

human lung cancer (OAT) [6] = assay type: in vivo, female ICR/cd-1 mice; settings: Example 39: 100 mg/kg (so in the source), IP 1~6

## [NH3C3H7(iso)]s (Mo7O24] • 3H2O [Compound A]
[1]; 200 mg/kg.ip for nine days, judged by increase of body weight, result in words
  toxicity: very low toxicity
[1]; No. 1, 100 mg/kg
  Average weight of tumor: 451.0 ± 84.7 mg
  Number of tumorless mice /total number of mice: 1/8
  Change in body weight: +2.50 (D1~D9) g
  T/control: 0.169
[1]; No. 2, 50 mg/kg
  Average weight of tumor: 1182.1±246.8(10) mg
  Number of tumorless mice /total number of mice: 0/10
  Change in body weight: +1.81 g
  T/control: 0.414
[1]; No. 2, 100 mg/kg
  Average weight of tumor: 563.9±99.1(9) mg
  Number of tumorless mice /total number of mice: 0/10
  Change in body weight: +1.97 g
  T/control: 0.198
[1]; No. 2, 200 mg/kg
  Average weight of tumor: 1211.8±227.6(8) mg
  Number of tumorless mice /total number of mice: 0/8
  Change in body weight: +1.81 g
  T/control: 0.424
[1]; No. 3, 50 mg/kg
  Average weight of tumor: 1606.0±163.5(8) mg
  Number of tumorless mice /total number of mice: 0/8
  Change in body weight: +1.68 g
  T/control: 0.624
Test for acute toxicity; BALB/C mice, dose of 3,600 mg/kg
  acute toxicity: no toxicity
Test for acute toxicity; nude mice, dose of 2,000 mg/kg ip
  acute toxicity: no toxicity
Methyl cholanthrene A [2]; No. 1, 100 mg/kg, ip×9
  Average number of days of survival: 42.3 ± 3.0 days
  Number of toxically killed mice/total number of mice: 0/8
Methyl cholanthrene A [2]; No. 1, 100 mg/kg
  Change in body weight: +2.50 g
Methyl cholanthrene A [2]; No. 1, 100 mg/kg, ip×9, days of survival
  T/control: 163.1
Methyl cholanthrene A [2]; No. 2, 50 mg/kg, ip×9
  Average number of days of survival: 31.8±2.2(8) days
  Number of toxically killed mice/total number of mice: 0/8
Methyl cholanthrene A [2]; No. 2, 50 mg/kg
  Change in body weight: +1.68 g
Methyl cholanthrene A [2]; No. 2, 50 mg/kg, ip×9, days of survival
  T/control: 131.8
Methyl cholanthrene A [2]; period of survival
  T/control: 63.1%

## Nas [IMo6O24] • 34H2O [Compound M]
Methyl cholanthrene A [3]
  Average number of days of survival ±SE: 42.57±5.77(7) days
  ILS: 61.3%
MM-46 breast cancer; 100 mg/kg/day ip×9
  % ILS: 100.9%
  (column without head: number of mice/total number of mice): 1/7
  Average days of survival ±SE: 55.1±8.7(7) days
MM-46 breast cancer; 200 mg/kg/day po×9
  % ILS: 59.7%
  (column without head: number of mice/total number of mice): 0/6
  Average days of survival ±SE: 43.8±3.9(6) days
[4]; 100 mg/kg, ip × 9 (D1~D9)
  Average weight of tumor after elapse of 14 days ± SE: 191.1±38.8(7) mg
[4]; 100 mg/kg.ip for 9 consecutive days, judged by increase of body weight, result in words
  toxicity: very slight toxicity
Human lung cancer (OAT) [5]; 100 mg/kg, IP 1~6 (except for 4)
  T/C: 77.4%
Human lung cancer (OAT) [5]; 100 mg/kg, IP 1~6 (except for 4), group mean
  Tumorous activity T7/T0: 2.00±0.20
Human lung cancer (OAT) [5]; 100 mg/kg, IP 1~6 (except for 4), individual mice
  Tumorous activity T7/T0: 2.25 and 1.60 and 2.15
Human lung cancer (OAT) [5]; 100 mg/kg, IP 1~6 (except for 4), size of tumor on 7th day, individual mice
  Tumorous activity T7: 22.5 omu and 16.0 omu and 21,5 omu
Human lung cancer (OAT) [5]; result in words
  antineoplastic activity: strong antineoplastic activity
Human lung cancer (OAT) [6]
  T/C: 60.0%
Human lung cancer (OAT) [6]; group mean
  Tumorous activity T7/T0: 1.56±0.24
Human lung cancer (OAT) [6]; individual mice, 100 mg/kg
  Tumorous activity T7/T0: 1.25 and 1.40 and 2.05
Human lung cancer (OAT) [6]; size of tumor on 7th day, individual mice, 100 mg/kg
  Tumorous activity T7: 12.5 omu and 14.0 omu and 20.5 omu
